Test results: ChEMBL document CHEMBL1155772, “Peroxide bond-dependent antiplasmodial specificity of artemisinin and OZ277 (RBx11160)” (Antimicrob Agents Chemother, 2007)
Values after ≈ are worked out from the molar mass of the structure shown. Active and inactive are the calls of the source. The calls are words filed in the database; no cut-off is given here.

Legend:
[1] = system: Trypanosoma brucei rhodesiense; experiment: Antitrypanosomal activity against Trypanosoma brucei rhodesiense STIB900; format: functional, organism-based
[2] = system: Babesia divergens; experiment: Antimicrobial activity against Babesia divergens 1903B; format: functional, organism-based
[3] = system: Leishmania donovani; experiment: Antileishmanial activity against Leishmania donovani MHOM-ET-67/L82 amastigotes by axenic assay; format: functional, organism-based
[4] = system: Giardia intestinalis; experiment: Antimicrobial activity against Giardia duodenalis G1; format: functional, organism-based
[5] = system: Trypanosoma cruzi; experiment: Antitrypanosomal activity against Trypanosoma cruzi Tulahuen C4; format: functional, organism-based
[6] = system: Neospora caninum; experiment: Antimicrobial activity against Neospora caninum up to 1 ug/ml; format: functional, organism-based
[7] = system: Babesia divergens; experiment: Antimicrobial activity against Babesia divergens 4201; format: functional, organism-based
[8] = system: Plasmodium falciparum; experiment: Antiplasmodial activity against Plasmodium falciparum K1; format: functional, organism-based
[9] = system: Plasmodium falciparum; experiment: Antiplasmodial activity against Plasmodium falciparum NF54; format: functional, organism-based
[10] = system: Giardia intestinalis; experiment: Antimicrobial activity against Giardia duodenalis WB; format: functional, organism-based
[11] = system: Leishmania donovani; experiment: Antileishmanial activity against Leishmania donovani promastigotes; format: functional, organism-based
[12] = system: Pneumocystis carinii; experiment: Antimicrobial activity against Pneumocystis carinii at 0.14 ug/ml in feeder layer cells; format: functional
[13] = system: Toxoplasma gondii; experiment: Antimicrobial activity against Toxoplasma gondii in normal human foreskin fibroblasts; format: functional, organism-based
[14] = system: Leishmania major; experiment: Antileishmanial activity against Leishmania major amastigotes; format: functional, organism-based
[15] = Inhibition of Plasmodium falciparum ATP6

SMILES | IC50 [1] [µg/mL] | IC50 [2] [µg/mL] | IC50 [3] [µg/mL] | IC50 [4] [µg/mL] | IC50 [5] [µg/mL] | Activity [6] | IC50 [7] [µg/mL] | IC50 [8] [µg/mL] | IC50 [9] [µg/mL] | IC50 [10] [µg/mL] | IC50 [11] [µg/mL] | inhibition at 0.14 µg/mL [12] [%] | IC50 [13] [µg/mL] | IC50 [14] [µg/mL] | IC50 [15] [µM]
CC(C)(N)CNC(=O)CC1CC[C@]2(CC1)OC[C@]1(O2)C2CC3CC(C2)CC1C3 (stereo partly specified) | 0.77 (≈ 1.97 µM) | 6.7 (≈ 17.2 µM) | 20 (≈ 51.2 µM) | 18 (≈ 46.1 µM) | 13 (≈ 33.3 µM) | inactive | 7.5 (≈ 19.2 µM) | 2.5 (≈ 6.4 µM) | 4.9 (≈ 12.5 µM) | 38 (≈ 97.3 µM) | – | – | – | – | –
CCCSc1ccc2[nH]c(NC(=O)OC)nc2c1 [ALBENDAZOLE] | – | – | – | 0.018 (≈ 0.0678 µM) | – | – | – | – | – | 0.019 (≈ 0.0716 µM) | – | – | – | – | –
C[C@@H]1CC[C@H]2[C@@H](C)C(=O)O[C@@H]3O[C@@]4(C)CC[C@@H]1[C@]32OO4 [ARTEMISININ] | 25 (≈ 88.5 µM) | > 10 | 8.8 (≈ 31.2 µM) | 49 (≈ 174 µM) | > 30 | inactive | > 10 | 0.002 (≈ 0.00708 µM) | 0.004 (≈ 0.0142 µM) | 65 (≈ 230 µM) | 8 (≈ 28.3 µM) | 55 | 2.3 (≈ 8.15 µM) | 8 (≈ 28.3 µM) | 0.079
O=C1C(O)=C([C@H]2CC[C@H](c3ccc(Cl)cc3)CC2)C(=O)c2ccccc21 [ATOVAQUONE] | – | 0.0091 (≈ 0.0248 µM) | – | – | – | – | 0.0087 (≈ 0.0237 µM) | – | – | – | – | – | – | – | –
O=C(Cn1ccnc1[N+](=O)[O-])NCc1ccccc1 [BENZNIDAZOLE] | – | – | – | – | 0.14 (≈ 0.538 µM) | – | – | – | – | – | – | – | – | – | –
C[C@@H]1CC[C@H]2[C@@H](C)C(=O)O[C@@H]3O[C@@]4(C)CC[C@@H]1[C@]32O4 [DEOXYARTEMISININ] | 34 (≈ 128 µM) | > 10 | > 30 | 28 (≈ 105 µM) | > 30 | inactive | > 10 | > 10 | > 10 | 91 (≈ 342 µM) | – | – | – | – | –
CCCCCCCCCCCCCCCCOP(=O)([O-])OCC[N+](C)(C)C [MILTEFOSINE] | – | – | 0.2 (≈ 0.491 µM) | – | – | – | – | – | – | – | – | – | – | – | –
CC(C)(N)CNC(=O)C[C@H]1CC[C@]2(CC1)OO[C@]1(O2)C2CC3CC(C2)CC1C3 [OZ277] | 0.56 (≈ 1.43 µM) | > 10 | 24 (≈ 61.1 µM) | 49 (≈ 125 µM) | 9.5 (≈ 24.2 µM) | inactive | > 10 | – | 0.00091 (≈ 0.00232 µM) | 41 (≈ 104 µM) | – | – | – | – | 7.7
